Test results reported in ChEMBL document CHEMBL5291721, “A preclinical secondary pharmacology resource illuminates target-adverse drug reaction associations of marketed drugs” (Nat Commun, 2023).
“And” between values parts separate entries of the source, which are not always exact repeats. Equal entries are not always repeated.

Key:
Estrogen receptor = target: T1, Estrogen receptor (Homo sapiens, UniProt P03372)
T1 sequence (P03372 whole entry): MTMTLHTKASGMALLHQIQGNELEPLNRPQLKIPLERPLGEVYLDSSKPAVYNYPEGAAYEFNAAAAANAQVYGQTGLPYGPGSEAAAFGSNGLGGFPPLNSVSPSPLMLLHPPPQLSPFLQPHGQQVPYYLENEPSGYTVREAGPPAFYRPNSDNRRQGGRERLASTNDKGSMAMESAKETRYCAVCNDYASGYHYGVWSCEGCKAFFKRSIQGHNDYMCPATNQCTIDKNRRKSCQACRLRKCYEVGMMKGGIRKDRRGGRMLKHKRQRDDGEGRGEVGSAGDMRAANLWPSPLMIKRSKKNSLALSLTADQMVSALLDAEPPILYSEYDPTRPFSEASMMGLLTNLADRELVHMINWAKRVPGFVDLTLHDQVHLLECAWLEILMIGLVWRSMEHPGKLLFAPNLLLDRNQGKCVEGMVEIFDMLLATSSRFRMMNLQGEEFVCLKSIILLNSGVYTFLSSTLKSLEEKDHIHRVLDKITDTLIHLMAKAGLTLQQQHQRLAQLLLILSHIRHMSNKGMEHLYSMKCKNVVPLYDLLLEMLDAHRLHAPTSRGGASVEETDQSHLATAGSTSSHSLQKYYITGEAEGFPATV

[1] = target: T2, Muscarinic acetylcholine receptor M1 (Homo sapiens, UniProt P11229); type: functional, cell-based
T2 sequence (P11229 whole entry): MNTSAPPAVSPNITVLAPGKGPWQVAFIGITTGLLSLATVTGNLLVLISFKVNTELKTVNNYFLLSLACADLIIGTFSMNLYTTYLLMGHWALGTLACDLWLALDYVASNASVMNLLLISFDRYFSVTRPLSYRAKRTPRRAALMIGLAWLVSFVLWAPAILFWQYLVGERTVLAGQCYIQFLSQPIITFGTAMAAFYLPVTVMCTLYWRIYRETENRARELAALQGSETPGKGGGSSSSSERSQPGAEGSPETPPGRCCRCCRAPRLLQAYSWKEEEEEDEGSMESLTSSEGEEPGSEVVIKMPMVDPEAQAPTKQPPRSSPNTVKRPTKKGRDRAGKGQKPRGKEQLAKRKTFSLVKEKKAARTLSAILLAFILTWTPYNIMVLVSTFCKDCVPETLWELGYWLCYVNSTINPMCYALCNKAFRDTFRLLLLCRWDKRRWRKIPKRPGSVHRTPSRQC

[2] = target: Delta-type opioid receptor (Homo sapiens, UniProt P41143)
Chain of Delta-type opioid receptor (P41143 whole entry): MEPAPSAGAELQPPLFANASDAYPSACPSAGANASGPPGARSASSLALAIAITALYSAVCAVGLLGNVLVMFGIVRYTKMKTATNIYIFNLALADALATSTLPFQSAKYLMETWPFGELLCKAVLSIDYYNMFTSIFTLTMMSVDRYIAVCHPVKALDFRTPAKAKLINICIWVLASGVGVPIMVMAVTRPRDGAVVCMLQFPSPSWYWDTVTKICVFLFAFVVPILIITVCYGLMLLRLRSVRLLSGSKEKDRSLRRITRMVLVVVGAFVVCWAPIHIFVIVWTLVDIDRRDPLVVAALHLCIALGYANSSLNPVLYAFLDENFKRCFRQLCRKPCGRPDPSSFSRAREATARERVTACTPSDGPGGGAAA

[3] = target: T3, Amine oxidase [flavin-containing] A (Homo sapiens, UniProt P21397); type: functional
T3 sequence (P21397 whole entry): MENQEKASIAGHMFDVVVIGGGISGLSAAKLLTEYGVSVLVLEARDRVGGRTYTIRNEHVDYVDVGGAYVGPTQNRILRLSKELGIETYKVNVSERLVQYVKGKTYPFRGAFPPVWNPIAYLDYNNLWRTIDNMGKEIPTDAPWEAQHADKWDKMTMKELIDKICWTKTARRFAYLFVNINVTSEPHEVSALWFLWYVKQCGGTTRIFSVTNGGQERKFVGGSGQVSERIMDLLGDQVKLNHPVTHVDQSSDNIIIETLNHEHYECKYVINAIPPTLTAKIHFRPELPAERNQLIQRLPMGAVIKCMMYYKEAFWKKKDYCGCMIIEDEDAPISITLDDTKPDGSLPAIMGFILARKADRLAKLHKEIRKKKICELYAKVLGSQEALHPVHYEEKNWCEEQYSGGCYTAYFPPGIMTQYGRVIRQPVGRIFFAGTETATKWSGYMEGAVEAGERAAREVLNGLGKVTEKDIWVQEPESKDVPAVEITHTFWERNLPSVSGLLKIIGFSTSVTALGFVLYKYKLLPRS

[4] = target: T4, 5-hydroxytryptamine receptor 2C (Homo sapiens, UniProt P28335)
T4 sequence (P28335 whole entry): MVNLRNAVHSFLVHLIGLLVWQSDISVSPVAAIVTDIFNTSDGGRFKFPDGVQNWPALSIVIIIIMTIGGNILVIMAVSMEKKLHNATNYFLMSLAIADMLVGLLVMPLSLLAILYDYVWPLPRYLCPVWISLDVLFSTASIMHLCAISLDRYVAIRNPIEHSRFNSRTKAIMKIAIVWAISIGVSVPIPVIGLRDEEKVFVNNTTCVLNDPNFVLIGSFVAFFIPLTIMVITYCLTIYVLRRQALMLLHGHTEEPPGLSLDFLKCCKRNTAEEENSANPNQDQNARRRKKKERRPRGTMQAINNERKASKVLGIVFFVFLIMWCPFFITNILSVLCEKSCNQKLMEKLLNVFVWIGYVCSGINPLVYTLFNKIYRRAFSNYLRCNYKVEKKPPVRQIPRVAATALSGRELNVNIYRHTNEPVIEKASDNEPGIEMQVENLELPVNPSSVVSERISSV

Cannabinoid receptor 1 = Cannabinoid receptor 1 (Homo sapiens, UniProt P21554)
Chain of Cannabinoid receptor 1 (P21554 whole entry): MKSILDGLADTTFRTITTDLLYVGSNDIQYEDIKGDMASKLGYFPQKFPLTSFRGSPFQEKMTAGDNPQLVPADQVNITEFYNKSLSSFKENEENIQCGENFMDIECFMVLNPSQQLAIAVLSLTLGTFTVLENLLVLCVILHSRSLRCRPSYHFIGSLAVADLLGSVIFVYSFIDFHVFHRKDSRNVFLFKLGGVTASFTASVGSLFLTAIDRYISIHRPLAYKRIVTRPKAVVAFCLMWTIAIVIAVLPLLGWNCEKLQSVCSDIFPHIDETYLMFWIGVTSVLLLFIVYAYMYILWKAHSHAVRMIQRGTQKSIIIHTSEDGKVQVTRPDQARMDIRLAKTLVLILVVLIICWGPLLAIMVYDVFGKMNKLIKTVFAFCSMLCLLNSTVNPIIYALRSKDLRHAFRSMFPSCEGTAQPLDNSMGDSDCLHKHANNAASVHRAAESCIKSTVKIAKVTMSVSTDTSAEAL

[5] = target: Sodium-dependent dopamine transporter (Homo sapiens, UniProt Q01959)
Chain of Sodium-dependent dopamine transporter (Q01959 whole entry): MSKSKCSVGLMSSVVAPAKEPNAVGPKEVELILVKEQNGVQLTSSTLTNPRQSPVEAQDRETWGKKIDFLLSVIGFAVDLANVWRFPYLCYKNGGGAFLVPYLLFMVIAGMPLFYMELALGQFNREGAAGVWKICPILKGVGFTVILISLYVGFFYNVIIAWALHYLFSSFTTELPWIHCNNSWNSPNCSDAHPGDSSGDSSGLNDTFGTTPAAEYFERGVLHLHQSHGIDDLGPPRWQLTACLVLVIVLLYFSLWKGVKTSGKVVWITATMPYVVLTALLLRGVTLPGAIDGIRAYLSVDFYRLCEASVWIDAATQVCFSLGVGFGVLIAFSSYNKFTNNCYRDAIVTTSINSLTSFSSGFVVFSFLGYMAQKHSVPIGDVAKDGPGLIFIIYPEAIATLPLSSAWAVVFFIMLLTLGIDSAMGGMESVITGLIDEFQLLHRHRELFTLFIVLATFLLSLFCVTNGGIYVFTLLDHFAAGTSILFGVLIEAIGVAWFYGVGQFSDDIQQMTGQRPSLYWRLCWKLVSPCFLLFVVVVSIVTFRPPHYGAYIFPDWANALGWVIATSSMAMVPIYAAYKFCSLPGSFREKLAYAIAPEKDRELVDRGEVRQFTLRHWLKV

Histamine H3 receptor = Histamine H3 receptor (Homo sapiens, UniProt Q9Y5N1)
Chain of Histamine H3 receptor (Q9Y5N1 whole entry): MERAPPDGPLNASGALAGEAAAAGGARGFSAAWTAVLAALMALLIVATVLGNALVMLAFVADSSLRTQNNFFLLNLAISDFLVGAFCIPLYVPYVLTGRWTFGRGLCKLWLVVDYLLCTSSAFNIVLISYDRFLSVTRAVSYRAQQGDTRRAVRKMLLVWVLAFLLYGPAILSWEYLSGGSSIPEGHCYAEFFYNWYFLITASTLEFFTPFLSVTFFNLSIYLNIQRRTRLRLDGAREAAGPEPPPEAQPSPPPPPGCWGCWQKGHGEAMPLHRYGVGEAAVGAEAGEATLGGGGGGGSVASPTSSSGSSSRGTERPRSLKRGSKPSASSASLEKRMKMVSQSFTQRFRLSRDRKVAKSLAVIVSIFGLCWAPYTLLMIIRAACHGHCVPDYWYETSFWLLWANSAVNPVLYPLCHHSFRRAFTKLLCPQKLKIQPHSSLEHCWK

Adenosine receptor A1 = target: T5, Adenosine receptor A1 (Homo sapiens, UniProt P30542)
T5 sequence (P30542 whole entry): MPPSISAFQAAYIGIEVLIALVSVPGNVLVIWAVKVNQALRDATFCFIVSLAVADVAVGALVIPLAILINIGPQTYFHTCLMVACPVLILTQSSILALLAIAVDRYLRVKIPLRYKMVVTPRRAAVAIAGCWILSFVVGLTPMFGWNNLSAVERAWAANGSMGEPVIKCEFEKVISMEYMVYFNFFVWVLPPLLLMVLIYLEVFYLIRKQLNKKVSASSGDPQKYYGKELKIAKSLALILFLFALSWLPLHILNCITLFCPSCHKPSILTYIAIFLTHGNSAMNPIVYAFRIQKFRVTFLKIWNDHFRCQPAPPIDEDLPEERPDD
Further: assay procedure not described here.

O=C(O)COc1ccc(C(=O)c2cccs2)c(Cl)c1Cl
AC50 (Estrogen receptor): > 30 µM

COc1c2ccoc2cc2oc(=O)ccc12 [BERGAPTEN]
AC50 [1]: > 30 µM
AC50 (Estrogen receptor): > 30 µM

CNC(=O)Oc1cccc2ccccc12 [CARBARIL]
AC50 [1]: > 30 µM
AC50 (Estrogen receptor): > 30 µM

CC[C@H](C)C[C@H](C)CCCCCCCCC(=O)N[C@H]1C[C@@H](O)[C@@H](NCCN)NC(=O)[C@@H]2[C@@H](O)CCN2C(=O)[C@H]([C@H](O)CCN)NC(=O)[C@H]([C@H](O)[C@@H](O)c2ccc(O)cc2)NC(=O)[C@@H]2C[C@@H](O)CN2C(=O)[C@H]([C@@H](C)O)NC1=O [CASPOFUNGIN]
AC50 [1]: 15.7 µM
AC50 (Estrogen receptor): 23.1 µM

C/C=C/C/C=C/CCC(=O)[C@H]1O[C@H]1C(N)=O [CERULENIN]
AC50 [1]: > 30 µM
AC50 (Estrogen receptor): > 30 µM

N[C@@H](CS)C(=O)O [CYSTEINE]
AC50 [1]: > 30 µM

OC[C@H]1O[C@@H](c2ccc(Cl)c(Cc3ccc(O[C@H]4CCOC4)cc3)c2)[C@H](O)[C@@H](O)[C@@H]1O [EMPAGLIFLOZIN]
AC50 [1]: > 30 µM
AC50 (Estrogen receptor): > 30 µM

CC(C)(O)CNc1nc(Nc2ccnc(C(F)(F)F)c2)nc(-c2cccc(C(F)(F)F)n2)n1 [ENASIDENIB]
AC50 [1]: 23.9 µM
AC50 (Estrogen receptor): > 30 µM

C#C[C@]1(O)CC[C@H]2[C@@H]3CCC4=CC(=O)CC[C@@H]4[C@H]3C(=C)C[C@@]21CC [ETONOGESTREL]
AC50 [2]: > 30 µM
AC50 [3]: > 30 µM
AC50 (Estrogen receptor): 5.62 µM
AC50 [4]: > 10 µM

CCc1nc(C(N)=O)c(Nc2ccc(N3CCC(N4CCN(C)CC4)CC3)c(OC)c2)nc1NC1CCOCC1 [GILTERITINIB]
AC50 [1]: > 0.3 µM
AC50 (Estrogen receptor): > 30 µM

O=C(O)CO [GLYCOLIC ACID]
AC50 (Estrogen receptor): > 30 µM

CC[C@H](c1ccc(O)cc1)[C@@H](CC)c1ccc(O)cc1 [HEXESTROL]
AC50 [1]: > 3 µM
AC50 (Estrogen receptor): 0.0252 µM

CC(C)Cc1ccc(C(C)C(=O)O)cc1 (centres undefined) [IBUPROFEN]
AC50 (Cannabinoid receptor 1): > 10 µM
AC50 [2]: > 30 µM
AC50 [3]: > 10 µM
AC50 (Estrogen receptor): > 30 µM
AC50 [5]: > 30 µM
AC50 [4]: > 30 µM
AC50 (Histamine H3 receptor): > 10 µM
AC50 (Adenosine receptor A1): > 30 µM

O=C1/C(=C2\Nc3ccc(S(=O)(=O)O)cc3C2=O)Nc2ccc(S(=O)(=O)O)cc21 [INDIGOTINDISULFONATE]
AC50 [1]: > 30 µM

OC[C@H]1O[C@@H](c2ccc(F)c(Cc3cc4ccccc4s3)c2)[C@H](O)[C@@H](O)[C@@H]1O [IPRAGLIFLOZIN]
AC50 [1]: 19.8 µM
AC50 (Estrogen receptor): > 30 µM

CC(C)C[C@H](NC(=O)CNC(=O)c1cc(Cl)ccc1Cl)B(O)O [IXAZOMIB]
AC50 [1]: > 30 µM
AC50 (Estrogen receptor): > 30 µM

CC(CCc1ccccc1)NCC(O)c1ccc(O)c(C(N)=O)c1 (centres undefined) [LABETALOL]
AC50 (Estrogen receptor): > 30 µM

C=CCN1CC[C@]23CCCC[C@H]2[C@H]1Cc1ccc(O)cc13 [LEVALLORPHAN]
AC50 [1]: > 30 µM

CN1CCCCC1CCN1c2ccccc2Sc2ccc([S+](C)[O-])cc21 (centres undefined) [MESORIDAZINE]
AC50 [1]: > 30 µM
AC50 (Estrogen receptor): > 10 µM

C[C@@H]1C[C@H]2[C@@H]3CCC4=CC(=O)C=C[C@]4(C)[C@@]3(Cl)[C@@H](O)C[C@]2(C)[C@@]1(OC(=O)c1ccco1)C(=O)CCl [MOMETASONE FUROATE]
AC50 [1]: > 30 µM

Cc1ccccc1C(=O)Nc1ccc(C(=O)N2CCCC(N(C)C)c3ccccc32)cc1 (centres undefined) [MOZAVAPTAN]
AC50 [1]: 23.7 µM
AC50 (Estrogen receptor): > 30 µM

O=C(O)c1cc(/N=N/c2ccc(O)c(C(=O)O)c2)ccc1O [OLSALAZINE]
AC50 [1]: > 30 µM
AC50 (Estrogen receptor): > 30 µM

CCOC(=O)C1=C[C@@H](OC(CC)CC)[C@H](NC(C)=O)[C@@H](N)C1 [OSELTAMIVIR]
AC50 [1]: > 30 µM

Cc1onc(-c2ccccc2)c1C(=O)N[C@@H]1C(=O)N2[C@@H]1SC(C)(C)[C@@H]2C(=O)O [OXACILLIN]
AC50 [1]: > 30 µM
AC50 (Estrogen receptor): > 30 µM

CCOC(=O)c1c(C)cc2c(CO)n[nH]c(=O)c2c1C [OXAGRELATE]
AC50 (Estrogen receptor): > 30 µM

CCn1cc(C(=O)O)c(=O)c2cc3c(cc21)OCO3 [OXOLINIC ACID]
AC50 [1]: > 30 µM

CN1C(C(=O)Nc2ccccn2)=C(O)c2ccccc2S1(=O)=O [PIROXICAM]
AC50 (Cannabinoid receptor 1): > 10 µM
AC50 [2]: > 30 µM
AC50 [3]: > 30 µM
AC50 (Estrogen receptor): > 30 µM
AC50 [5]: > 10 µM
AC50 [4]: > 30 µM
AC50 (Adenosine receptor A1): > 10 µM

CC[C@@]1(O)C(=O)OCc2c1cc1n(c2=O)Cc2cc3c([N+](=O)[O-])cccc3nc2-1 [RUBITECAN]
AC50 (Estrogen receptor): > 30 µM

N[C@@H](CO)C(=O)O [SERINE]
AC50 [1]: > 30 µM

OC[C@@H](O)[C@@H](O)[C@H](O)[C@@H](O)CO [SORBITOL]
AC50 (Estrogen receptor): > 30 µM

OC[C@H]1O[C@@](CO)(O[C@H]2O[C@H](CO)[C@@H](O)[C@H](O)[C@H]2O)[C@@H](O)[C@@H]1O [SUCROSE]
AC50 [2]: > 30 µM
AC50 [3]: > 30 µM
AC50 (Estrogen receptor): > 30 µM
AC50 [5]: > 30 µM
AC50 [4]: > 30 µM
AC50 (Histamine H3 receptor): > 30 µM
AC50 (Adenosine receptor A1): > 30 µM

C=CC[C@@H]1/C=C(\C)C[C@H](C)C[C@H](OC)[C@H]2O[C@@](O)(C(=O)C(=O)N3CCCC[C@H]3C(=O)O[C@H](/C(C)=C/[C@@H]3CC[C@@H](O)[C@H](OC)C3)[C@H](C)[C@@H](O)CC1=O)[C@H](C)C[C@@H]2OC [TACROLIMUS ANHYDROUS]
AC50 (Cannabinoid receptor 1): > 10 µM
AC50 [2]: > 30 µM
AC50 [3]: > 30 µM
AC50 [5]: 19.6 µM and > 10 µM
AC50 [4]: > 30 µM
AC50 (Histamine H3 receptor): > 30 µM
AC50 (Adenosine receptor A1): > 30 µM

C[C@]1(Cn2ccnn2)[C@H](C(=O)O)N2C(=O)C[C@H]2S1(=O)=O [TAZOBACTAM]
AC50 (Estrogen receptor): > 30 µM

COc1cc2nc(N3CCN(C(=O)C4CCCO4)CC3)nc(N)c2cc1OC (centres undefined) [TERAZOSIN]
AC50 (Cannabinoid receptor 1): > 10 µM
AC50 [2]: > 30 µM
AC50 [3]: > 10 µM
AC50 (Estrogen receptor): > 30 µM
AC50 [5]: > 10 µM
AC50 [4]: > 30 µM
AC50 (Histamine H3 receptor): > 10 µM
AC50 (Adenosine receptor A1): > 30 µM

CC(=O)Oc1cc(C(F)(F)F)ccc1C(=O)O [TRIFLUSAL]
AC50 [1]: > 30 µM

Cc1onc(-c2ccccc2)c1-c1ccc(S(N)(=O)=O)cc1 [VALDECOXIB]
AC50 (Cannabinoid receptor 1): > 10 µM
AC50 [2]: > 30 µM
AC50 [3]: > 10 µM
AC50 [5]: > 30 µM
AC50 [4]: > 30 µM
AC50 (Histamine H3 receptor): > 30 µM
AC50 (Adenosine receptor A1): 27.7 µM

CCCC(CCC)C(=O)O [VALPROIC ACID]
AC50 (Cannabinoid receptor 1): > 10 µM
AC50 [2]: > 30 µM
AC50 [3]: > 10 µM
AC50 (Estrogen receptor): > 30 µM
AC50 [5]: 4.97 µM
AC50 [4]: 11 µM
AC50 (Histamine H3 receptor): > 10 µM
AC50 (Adenosine receptor A1): > 30 µM
